Measurements taken from patent US20070254955A1, “Nail softener for use in deformed-nail corrective treatment or nail-structure modification, enclosure for external chemicals and method of correcting deformed nail” (priority 2003, published 2007).

Legend:
ingrown nail [1] = assay: Ingrown-nail correction with nail softener in enclosure plus superelastic alloy wire (Second Example, deep nail); type: in vivo; details: reposition by action of superelastic alloy wire
Excerpt: With reference to the drawings, an ingrown-nail correcting method using the enclosure according to one embodiment of the present invention will be described below. As mentioned above, the cases of ingrown nails include one case of a sufficiently grown nail, and another case of a deep nail. While the deformed-nail correcting method using the enclosure of the present invention can be applied to both the cases, the second example will be described in conjunction with one case where the method is applied to a deep nail. An emulsifying agent was first added to ammonium thioglycolate serving as a reducing agent to prepare a 5% (weight %) ammonium thioglycolate mail softener in the form of cream or paste. […] The through-hole P1c was formed to fix one of the ends of a superelastic alloy wire w (see the aforementioned Patent Publication). Further, four small holes P2 serving as anchoring holes of resin r for fixing the other end of the wire were formed in the other lateral side region n2 of the nail. One of the ends of the wire w is inserted into the central through-hole p1c. Then, the wire w was folded toward the other side region n2 or a flat region, and brought into close contact with the surface of the nail. A resin r was applied onto the curved region n1 to fix one end of the wire w. An ultra-fast cure type autopolymerizing resin (GC Unifast II: trade name of GC Co.) was used as the resin. […]

ingrown nail [2] = assay: Deformed-nail corrective treatment with nail softener (First Example, sufficiently grown ingrown nail); type: in vivo; details: nail repositioned by fingertips, immobilized with resin for one hour; FIG. 4
Excerpt: With reference to the drawings, a deformed-nail correcting method using the nail softener according to one embodiment of the present invention will be described below. The cases of ingrown nails include one case of a sufficiently grown nail, and another case of a deep nail. While the deformed-nail correcting method using the nail softener of the present invention can be applied to both the cases, the first example will be described in conjunction with one case where the method is applied to a sufficiently grown nail. An emulsifying agent was first added to ammonium thioglycolate serving as a reducing agent to prepare a 5% (weight %) ammonium thioglycolate mail softener in the form of cream or paste. […] The number of the small through-hole may be changed according to the state of the nail, and may be, for example, two. The prepared nail softener was applied onto the entire surface of the nail at a thickness of about 5 mm, and left the nail untouched. After 25 minutes from the application of the nail softener to the nail, the state of the nail was checked. […] Thus, the nail softener was washed away and removed from the nail using a hot water. […] In order to maintain the corrected position, a resin 12 was attached onto the upper surface of the nail to close the small through-holes 10 formed in the front region of the nail (see FIG. 3). […]

Row | SMILES | result of the corrective treatment (reposition of the ingrown nail) (ingrown nail [1]) | result of the corrective treatment (correction of the deformed nail) (ingrown nail [2])
1 | N[C@@H](CS)C(=O)O [cysteine] | substantially the same result | substantially the same result
2 | O=C(O)CS [thioglycolic acid] | substantially the same result | substantially the same result
